# How the values were obtained:
# [1] = system: human TNFα and human IL-17; test: Inhibition of CXCL1 production from HT-29 cells induced by combination of IL-17 and TNF; format: cell-based; conditions: antibodies at fixed dose of 4 nM, 3 pM TNFα and 200 pM IL-17
# Procedure: As described above, HT-29 cells are human colorectal adenocarcinoma epithelial cells that naturally express the IL-17 and TNF receptors. Incubation of HT-29 cells with human TNFα and human IL-17 results in the production of CXCL1, which can be measured using a commercially available ELISA.
# Testing is carried out in five replicate wells per treatment. Assay medium is used for “medium alone” and “IL-17+TNF alone”. Anti-IL-17 antibody (U.S. Pat. No. 7,838,638); anti-TNFα antibody (adalimumab); and combination of anti-IL-17 antibody/anti-TNF antibody are used as controls in the assay. Control antibodies are tested at the same molar range as the bispecific antibody. […]
# HT-29 cells are routinely cultured in assay medium [McCoy's 5A containing 10% FBS, penicillinG (0.2 U/mL) and streptomycin (0.2 mcg/mL)]. […] Cell density is measured with Invitrogen Countess, and 20,000 HT-29 cells (in 100 μL) are added to each of the 96-well plates. […]
# At the end of the assay, the plates are centrifuged (500×g for 5 minutes at room temperature), and the cell culture medium is transferred to polypropylene 96-well plates, which are sealed and frozen at −80° C. […] CXCL1 levels in medium are measured with a CXCL1 sandwich ELISA (R&D Systems DuoSet #DY275), as per the manufacturer's instructions. At the end of the ELISA reactions, plates are read at 450 nm on a microplate reader (Molecular Devices VersaMax Tunable).
# [2] = system: membrane bound human TNFα; test: Inhibition of membrane bound human TNFα induced cytotoxicity in L929 cells; format: cell-based; conditions: average of 3 independent experiments+/−SEM; read-out: IC50, killing of L929 cells by human non-cleavable membrane bound TNFα CHO cells
# Procedure: The non-cleavable TNFα construct is stably transfected to Chinese hamster ovary (CHO) cells. These cells express membrane bound TNFα as shown by flow cytometry. Incubation of L929 cells with CHO cells expressing human non-cleavable membrane bound TNFα results in rapid L929 cell death.
# CHO cells expressing membrane bound human TNFα are routinely maintained in selection medium (AM2001 media, an internal CHO growth media without MSX, 8 mM glutamine, GS supplement, HT supplement with 500 μg/mL G418). On the day of the assay, the cells are counted, rinsed with 1×PBS (no Ca^++ or Mg^++), centrifuged at 215×g for 5 mM and re-suspended at 50,000 cells/mL in L929 assay medium together with Actinomycin-D (6.25 μg/mL). 500 cells (in 10 μL) of cell suspension are added to each concentration of antibody mixtures that were incubated for 60 minutes at 37° C., 95% relative humidity, 5% CO2. […] The cell death is measured using an MTT cytotoxicity assay as described above for soluble TNFα L929 assay.
# human TNFα = human TNFα (Homo sapiens, UniProt P01375); test: Inhibition of human TNFα-induced production of CXCL1 in vivo; parameters: species or system mouse; conditions: C57BI/6J mice; 16.7 nmol/kg subcutaneously; TNFα challenge two days later; plasma two hours after challenge
# Procedure: Two days later, mice receive a single intraperitoneal injection of human IL-17 (3 μg/mouse) or human TNFα (1 μg/mouse). Two hours after cytokine challenge, the mice are sacrificed and plasma is analyzed for CXCL1 using a commercial ELISA.
# [3] = system: human skin grafts on immunodeficient mice; test: Humanized psoriasis mouse model (human skin grafts, PBMC injection); format: in vivo; conditions: twice daily topical; after three weeks
# Excerpt: A humanized mouse model of psoriasis is a model that involves grafting of human non-lesional skin biopsies from psoriasis patients onto the back skin of immunodeficient mice. After the human skin has grafted (3 to 4 weeks later), T-cell activated human peripheral blood mononuclear cells (PBMCs) from the same donor are intradermally injected into the graft to induce psoriasis-like epidermal thickening (Wrone-Smith and Nickoloff J., Clin Invest. 15; 98(8):1878-87 (1996)).
# After three weeks the mice are euthanized, the grafted skin was isolated, and the thickness of the epidermis is measured.
# Chain of membrane bound human TNFα (P01375 89-233 limits assumed): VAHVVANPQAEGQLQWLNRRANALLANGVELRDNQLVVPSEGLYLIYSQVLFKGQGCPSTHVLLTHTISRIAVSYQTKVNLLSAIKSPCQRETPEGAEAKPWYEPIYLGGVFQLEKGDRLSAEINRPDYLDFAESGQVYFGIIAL
# Chain of human TNFα (P01375 77-233 limits assumed): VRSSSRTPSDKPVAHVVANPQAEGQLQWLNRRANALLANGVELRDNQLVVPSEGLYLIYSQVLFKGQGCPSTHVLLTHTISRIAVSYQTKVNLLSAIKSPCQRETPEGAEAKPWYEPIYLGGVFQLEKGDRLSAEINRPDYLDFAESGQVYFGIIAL
compound,measurement,setting,value
adalimumab [anti-TNFα],percent human CXCL1 left after incubation (TNF+IL-17 alone being 100%),[1],8.97+/−2.65%
"adalimumab with IgG4 isotype: TNFα neutralizing antibody (adalimumab with IgG4 isotype), positive control in L929 assays and in vivo CXCL1 (Table 2)",IC50,[2],0.669 nM
same,Average % inhibition of human TNFα-induced CXCL1 production in vivo,human TNFα,89.4 ± 2%
"C[C@H]1C[C@H]2[C@@H]3CCC4=CC(=O)C=C[C@]4(C)[C@@]3(F)[C@@H](O)C[C@]2(C)[C@@]1(O)C(=O)CO [Betamethasone, betamethasone]",Mean Epidermal Thickness,[3],74.9 μm

# Reference: patent US9416182B2, “Anti-TNF-anti-IL-17 bispecific antibodies” (Eli Lilly and Company, priority 2013, dated 2016)
